Results reported in the CheMixHub viscosity set.

Assay: xn = mol fraction of the nth substance listed

O=S1(=O)CCCC1 + OCCOCCO
303.15 K, 101 kPa
Conditions | viscosity [mPa·s]
x1 = 0.0517 | 20.1
x1 = 0.0984 | 18.62
x1 = 0.206 | 15.85
x1 = 0.2958 | 13.99
x1 = 0.3988 | 12.28
x1 = 0.4469 | 11.69
x1 = 0.4997 | 11.11
x1 = 0.5346 | 10.81
x1 = 0.603 | 10.31
x1 = 0.7047 | 9.829
x1 = 0.7896 | 9.536
x1 = 0.8987 | 9.51
x1 = 0.9348 | 9.614

O=S1(=O)CCCC1 + OCCOCCOCCO
303.15 K, 101 kPa
Conditions | viscosity [mPa·s]
x1 = 0.0435 | 27.75
x1 = 0.0985 | 25.88
x1 = 0.2083 | 22.54
x1 = 0.2999 | 20.02
x1 = 0.3966 | 17.63
x1 = 0.4473 | 16.49
x1 = 0.4985 | 15.45
x1 = 0.5498 | 14.47
x1 = 0.5855 | 13.85
x1 = 0.6913 | 12.24
x1 = 0.8065 | 10.9
x1 = 0.8984 | 10.18
x1 = 0.9458 | 10.08

Cc1ccc(O)cc1 + Oc1ccccc1
298.15 K, 101 kPa
Conditions | viscosity [mPa·s]
x2 = 0.1598 | 13.27
x2 = 0.3191 | 12.18
x2 = 0.3851 | 11.75
x2 = 0.5218 | 10.99
x2 = 0.6385 | 10.42
x2 = 0.7587 | 9.835
x2 = 0.8783 | 9.463

O=S(=O)(Cl)Cl + [Cl-].[Cl-].[Cl-].[Cl-].[Sn+4]
298.15 K, 101 kPa
Conditions | viscosity [mPa·s]
x1 = 0.268 | 0.7739
x1 = 0.563 | 0.7396
x1 = 0.795 | 0.7144

CCC(C)O (centres undefined) + c1ccccc1
303 K, 101.3 kPa
Conditions | viscosity [mPa·s]
x2 = 0.1032 | 1.95
x2 = 0.2077 | 1.52
x2 = 0.3084 | 1.204
x2 = 0.4086 | 0.9692
x2 = 0.511 | 0.8012
x2 = 0.5989 | 0.6995
x2 = 0.7027 | 0.6211
x2 = 0.7981 | 0.5854
x2 = 0.8973 | 0.5709

Cc1ccc(O)cc1 + c1ccccc1
308.15 K, 101 kPa
Conditions | viscosity [mPa·s]
x1 = 0.0751 | 0.6025
x1 = 0.1778 | 0.749
x1 = 0.292 | 0.9762
x1 = 0.4109 | 1.327
x1 = 0.532 | 1.87
x1 = 0.6653 | 2.706
x1 = 0.7851 | 4.175
x1 = 0.8374 | 4.963
x1 = 0.9459 | 7.462

Cc1cccc(C)c1 + c1ccccc1
viscosity [mPa·s], 101 kPa
Conditions | x1 = 0.0977 | x1 = 0.2098 | x1 = 0.2979 | x1 = 0.4028 | x1 = 0.5018 | x1 = 0.5981 | x1 = 0.7046 | x1 = 0.8007 | x1 = 0.898
303 K | 0.5478 | 0.5424 | 0.5393 | 0.5373 | 0.5342 | 0.5374 | 0.536 | 0.5395 | 0.5417
313 K | 0.4793 | 0.4781 | 0.4769 | 0.4767 | 0.4789 | 0.4796 | 0.4818 | 0.4843 | 0.4875
323 K | 0.4302 | 0.4308 | 0.4285 | 0.4291 | 0.4307 | 0.4342 | 0.4361 | 0.4397 | 0.443

O=S(=O)(Cl)Cl + c1ccccc1
298.15 K, 101 kPa
Conditions | viscosity [mPa·s]
x1 = 0.176 | 0.6172
x1 = 0.43 | 0.6463
x1 = 0.699 | 0.6673
x1 = 0.734 | 0.6691
x1 = 0.845 | 0.6757

O=S1(=O)CCCC1 + c1ccccc1
viscosity [mPa·s]
Conditions | 303.15 K | 313.15 K | 323.15 K
101 kPa, x1 = 0.0944 | 0.7133 | 0.6194 | 0.5441
101 kPa, x1 = 0.1855 | 0.8992 | 0.7737 | 0.6751
101 kPa, x1 = 0.2522 | 1.074 | 0.9112 | 0.7919
101 kPa, x1 = 0.2849 | 1.162 | 0.9889 | 0.8556
101 kPa, x1 = 0.3829 | 1.504 | 1.267 | 1.085
101 kPa, x1 = 0.4835 | 1.976 | 1.648 | 1.396
101 kPa, x1 = 0.5905 | 2.694 | 2.202 | 1.855
101 kPa, x1 = 0.6841 | 3.563 | 2.879 | 2.388
101 kPa, x1 = 0.7917 | 5.014 | 3.996 | 3.267
101 kPa, x1 = 0.8956 | 7.129 | 5.619 | 4.505
101.3 kPa, x2 = 0.1417 | 6.075 | – | 3.928
101.3 kPa, x2 = 0.2777 | 4.003 | – | 2.676
101.3 kPa, x2 = 0.3972 | 2.826 | – | 1.95
101.3 kPa, x2 = 0.5062 | 2.066 | – | 1.468
101.3 kPa, x2 = 0.6063 | 1.571 | – | 1.137
101.3 kPa, x2 = 0.6976 | 1.2 | – | 0.8791
101.3 kPa, x2 = 0.7823 | 0.9625 | – | 0.717
101.3 kPa, x2 = 0.8602 | 0.786 | – | 0.5933
101.3 kPa, x2 = 0.9327 | 0.652 | – | 0.5029

Cc1ccc(O)cc1 + c1ccncc1
viscosity [mPa·s], 101 kPa
Conditions | x1 = 0.163 | x1 = 0.2353 | x1 = 0.3282 | x1 = 0.3907 | x1 = 0.4666 | x1 = 0.527 | x1 = 0.6065 | x1 = 0.6911 | x1 = 0.7846 | x1 = 0.881
293.15 K | 1.451 | 1.808 | 2.535 | 3.105 | 4.215 | 5.315 | 7.365 | 10.04 | 13.24 | 16.16
303.15 K | 1.363 | 1.628 | 2.115 | 2.565 | 3.31 | 4.08 | 5.265 | 6.635 | 7.97 | 9.26
313.15 K | 1.139 | 1.37 | 1.727 | 2.065 | 2.6 | 3.115 | 3.83 | 4.66 | 5.415 | 6.02
